Holding throughout (format): cell-based
Data set [1] can be described thus: Cell Titer-Glo Cell Viability Assay, genotype 1b cells. Conditions: human, Huh-Luc-Neo (HCV genotype 1b replicon) cells, HCV genotype 1b assays, read-out: Cytotoxicity* (CC50). As to the method:
Cell Seeding and Compound Treatment: Huh-Luc-Neo (Genotype 1b) or En5-3/Htat2ANeo (Genotype 1a) cells are seeded at 5000-7000/well in an opaque-walled 96 plate with Growth Medium (DMEM phenol red free+PS+2 mM glutamine; 100 ul/well). The compounds to be tested for inhibition of cell viability are added to the experimental wells so as to generate a dose response curve (8-9 concentrations, 10 μl/well at 10× assay concentration) and the cells are then incubated (5% CO2, 37° C.) for 72 h.
Reagent Preparation and Assay: After completion of the incubation period the cell viability measurements are made using the Cell Titre Glo Assay (Promega) according to the manufacturer's recommended protocol. Briefly, the CellTiter-Glo Buffer is thawed and equilibrated to room temperature prior to use. The lyophilized CellTiter-Glo Substrate is also equilibrated to room temperature prior to use. 10 ml of CellTiter-Glo Buffer is then transferred to 1 vial of CellTiter-Glo Substrate and mixed gently with a Vortex. 100 μl of CellTiter-Glo Assay reagent (CellTiter-Glo Buffer+CellTiter-Glo Substrate Mixture) is added to each well. The well contents are mixed for 5 min. on an orbital shaker at room temperature to induce cell lysis and the luminescence is then measured using a luminometer.

Data set [2] has as its system HCV genotype 1b replicon (Huh-Luc-Neo cells). The data set is described as follows: HCV Replicon RNA (Taqman) Assay, genotype 1b. To be noted: Hepatitis C virus, 72 h, read-out: HCV-1b Replicon Inhibition*, Taqman (EC50). For orientation: Replicon systems follow genome replication, usually without infectious particles.
The test system is the same in data set [3]. As to the kind of experiment: HCV Replicon Luciferase Assay. Conditions: Hepatitis C virus, 72 h, read-out: HCV-1b Replicon Inhibition*, Luciferase (EC50).
[4] abbreviates: Huh-Luc-Neo cells, genotype 1b, HCV RNA.

Where only a bound is given, the exact number is not on record here.

The term CC50 denotes the concentration giving 50% cytotoxicity. The EC50 is the concentration that produces a half-maximal response.

For the molecule `CCOC(=O)c1ccc(O)c(-c2nn(C)cc2C#Cc2ccc(NC(=O)[C@@H]3CCCCN3C(=O)[C@H](NC(=O)OC(C)(C)C)c3ccccc3)cc2)c1` [Compound 30], in data set [1], the CC50 at 72 h is above 100 µM. Further, the EC50 is below 1 µM in data set [2] (setting [4]) and below 1 µM in data set [3] (Huh-Luc-Neo cells, genotype 1b).
Turning to `Cc1ccc(O)c(-c2nn(C)cc2C#Cc2ccc(NC(=O)C3CCCCN3C(=O)[C@H](Cc3ccccc3)NC(=O)CC(C)(C)C)cc2)c1` (stereo partly drawn) [Compound 8], the CC50 at 72 h in data set [1] was 10 to 100 µM. Moreover, the EC50 was below 1 µM in data set [2] (setting [4]) and below 1 µM in data set [3] (Huh-Luc-Neo cells, genotype 1b).
Turning to `COc1ccc(C[C@H](NC(=O)OC(C)(C)C)C(=O)N2CCCCC2C(=O)Nc2ccc(C#Cc3cn(C)nc3-c3cc(C)ccc3O)cc2)cc1` (stereo partly drawn) [Compound 4], the CC50 at 72 h in data set [1] was below 1 µM. The concentration for a half-maximal effect (EC50) in data set [2] (setting [4]) is below 1 µM; in data set [3] (Huh-Luc-Neo cells, genotype 1b), below 1 µM.
As for `Cc1ccc(O)c(-c2nn(C)cc2C#Cc2ccc(NC(=O)[C@@H]3CCCCN3C(=O)[C@H](NC(=O)OC(C)(C)C)c3cccs3)cc2)c1` [Example 50], the CC50 at 72 h in data set [1] was above 100 µM. In addition, the EC50 in data set [2] (setting [4]) is below 1 µM; in data set [3] (Huh-Luc-Neo cells, genotype 1b), below 1 µM.
In the case of `Cc1ccc(O)c(-c2nn(C)cc2C#Cc2ccc(NC(=O)C3CCCCN3C(=O)[C@H](CCc3ccccc3)NC(=O)OC(C)(C)C)cc2)c1` (stereo partly drawn) [Compound 7A], the CC50 at 72 h in data set [1] lay in the range of 10 to 100 µM. The 50% effective concentration (EC50) in data set [2] (GETYPE1B, Huh-Luc-Neo cells, genotype 1b, HCV RNA) was below 1 µM; in data set [3] (GETYPE1B, Huh-Luc-Neo cells, genotype 1b) it was below 1 µM.
With `Cc1ccc(OCC(N)=O)c(-c2nn(C)cc2C#Cc2ccc(NC(=O)C3CCCCN3C(=O)[C@H](Cc3ccccc3)NC(=O)OC(C)(C)C)cc2)c1` (stereo partly drawn) [Compound 58], the CC50 at 72 h in data set [1] lay in the range of 10 to 100 µM. For the same molecule, the EC50 is above 100 µM in data set [2] and 1 to 10 µM in data set [3].
Turning to `Cc1ccc(O)c(-c2nn(C)cc2C#Cc2ccc(NC(=O)C3CCCCN3C(=O)[C@H](Cc3cccnc3)NC(=O)OC(C)(C)C)cc2)c1` (stereo partly drawn) [Compound 3], the CC50 at 72 h in data set [1] was above 100 µM. For the same molecule, the EC50 is below 1 µM in data set [2] (setting [4]) and below 1 µM in data set [3] (Huh-Luc-Neo cells, genotype 1b).
Regarding `CCOC(=O)c1ccc(O)c(-c2nn(C)cc2C#Cc2ccc(NC(=O)[C@@H]3CCCCN3C(=O)[C@H](NC(=O)OC(C)(C)C)c3ccccc3OC)cc2)c1` [Compound 31], the CC50 at 72 h in data set [1] was above 100 µM. Moreover, the EC50 is below 1 µM in data set [2] (setting [4]) and below 1 µM in data set [3] (Huh-Luc-Neo cells, genotype 1b).
`Cn1cc(C#Cc2ccc(NC(=O)[C@@H]3COCCN3C(=O)[C@H](NC(=O)OC(C)(C)C)c3ccccc3)cc2)c(-c2cc(Cl)ccc2O)n1` [Example 51]: in data set [1], the CC50 at 72 h fell in the range of 10 to 100 µM. Further, the EC50 in data set [2] (setting [4]) was below 1 µM; in data set [3] (Huh-Luc-Neo cells, genotype 1b) it was below 1 µM.
Take `Cc1ccc(O)c(-c2nn(C)cc2C#Cc2ccc(NC(=O)[C@H]3CS(=O)(=O)CCN3C(=O)[C@H](NC(=O)OC(C)(C)C)c3ccccc3)cc2)c1` [Compound 46 (Table 1)]: the 50% cytotoxic concentration (CC50) at 72 h in data set [1] was above 100 µM. Further, the EC50 in data set [2] (setting [4]) was below 1 µM; in data set [3] (Huh-Luc-Neo cells, genotype 1b), below 1 µM.
As for `Cn1cc(C#Cc2ccc(NC(=O)[C@@H]3COCCN3C(=O)[C@H](NC(=O)OC(C)(C)C)c3ccsc3)cc2)c(-c2cc(C#N)ccc2O)n1` [Compound 34], the CC50 at 72 h in data set [1] was above 100 µM. For the same molecule, the EC50 in data set [2] (setting [4]) was below 1 µM; in data set [3] (Huh-Luc-Neo cells, genotype 1b) it was below 1 µM.
Regarding `Cc1ccc(O)c(-c2nn(C)cc2C#Cc2ccc(NC(=O)C3CCCCN3C(=O)[C@H](Cc3ccc(Br)cc3)NC(=O)OC(C)(C)C)cc2)c1` (stereo partly drawn) [Compound 26], in data set [1], the CC50 at 72 h fell in the range of 10 to 100 µM. For the same molecule, the EC50 is below 1 µM in data set [2] (setting [4]) and below 1 µM in data set [3] (Huh-Luc-Neo cells, genotype 1b).
For the molecule `CCOC(=O)c1ccc(O)c(-c2nn(C)cc2C#Cc2ccc(NC(=O)[C@@H]3CCCCN3C(=O)[C@H](NC(=O)OC(C)(C)C)c3ccsc3)cc2)c1` [Compound 33], in data set [1], the CC50 at 72 h was above 100 µM. In addition, the EC50 in data set [2] (setting [4]) was below 1 µM; in data set [3] (Huh-Luc-Neo cells, genotype 1b), below 1 µM.
Consider `Cc1ccc(O)c(-c2nn(C)cc2C#Cc2ccc(NC(=O)C3CCCCN3C(=O)[C@H](Cc3ccc(Cl)cc3)NC(=O)OC(C)(C)C)cc2)c1` (stereo partly drawn) [Compound 23], for which the CC50 at 72 h in data set [1] fell in the range of 10 to 100 µM. Further, the concentration for a half-maximal effect (EC50) is below 1 µM in data set [2] (setting [4]) and below 1 µM in data set [3] (Huh-Luc-Neo cells, genotype 1b).
